Reference: patent US20230234920A1, “Azirine Containing Compounds as Anti-Angiogenesis Agents and a Process for the Preparation Thereof” (COUNCIL OF SCIENTIFIC & INDUSTRIAL RESEARCH, priority 2020, published 2023)

Experiments:
HUVECs = test: Capillary-like tube formation assay (tubulogenesis); format: cell-based, human
Method in brief: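 HUVECs seeded on Matrigel (regular or reduced growth factor) in incomplete ECM basal medium, treated with compound for 6 h; VEGF 50 ng/mL positive and sunitinib 50 nM negative controls. Calcein-AM-stained tubules imaged at 10× and tubule length expressed as % of 0.1% DMSO vehicle.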

Balb/c mice = test: Matrigel plug assay; format: in vivo
Protocol: (A) Post 7 days treatment of control (0.1% DMSO), sunitinib and Compound 1 at a given concentration, the mice was sacrificed and representative Matrigel plugs were excised and photographed. (B) Hemoglobin estimation was performed using drapkin's reagent and graph was plotted with data that are represented as mean±SEM from three independent experiments with significant difference from control at *p<0.05 using t-test analysis.
Compound 1 ability to modulate neovascularization was evaluated by matrigel plug assay, using mouse-VEGF and bFGF (R&D systems, Minneapolis) as stimulus. 300 μL of matrigel (Corning Inc., Corning, N.Y., USA) were allowed to liquefy at 4° C., supplemented with either VEGF […], bFGF […] and heparin (10 mg/mL) as a control or with sunitinib […] as a positive control. All groups and test groups having similar condition along with Compound 1 (750 nM) were carefully mixed with pre-chilled pipette tips to prevent aeration and gelatinization. […] Matrigel plugs were excised after photographs were taken and angiogenic response was evaluated by spectrophotometric measurement of hemoglobin content using the Drabkin's method according to the manufacturer's protocol (Cat no. D5941-6VL; Sigma, St. Louis, Mo.). Absorbance was measured at 540 nm and hemoglobin concentration was calculated.

[1] = tested on: MDA-MB 468 triple negative breast cancer; test: MDA-MB 468 xenograft mouse model; format: in vivo, nude mice
Description: FIG. 13 represents Effect of Compound 1 on triple negative breast cancer celline MDA-MB 468 in xenograft mouse model.
A nude mice model bearing orthotopic HCT116 colon tumor or MDA-MB 468 was used to evaluate the anti-tumor angiogenesis effect of Compound 1 in vivo (FIG. 12). […] To investigate the effects of Compound 1 on angiogenesis and molecular targets in vivo, we examined the expression level of endothelial-specific marker (CD31) in tumor samples.

Compound: CCOC(=O)C1N=C1CCc1ccc(OC)cc1 (racemic) [Compound 1, Ethyl 3-(4-methoxyphenethyl)-2H-azirine-2-carboxylate]
- anti-angiogenic activity on primary tubulogenesis screening (HUVECs): 75 nM
- tubule formation (HUVECs; 25 nM, 6 h): complete angiogenesis
- tubule formation as compared to control (HUVECs; 75 nM, 6 h): 50%
- tubule formation (HUVECs; 100 nM combined with sunitinib at 20 nM, 6 h): approximately 15%
- tubule formation (HUVECs; 250 nM till 125 nM, 6 h): light increase in the tubule formation
- tubulogenesis inhibition (HUVECs; 10 μM till 500 nM, 6 h): complete tubulogenesis inhibition
- IC50 (HUVECs; Homo sapiens, HUVEC, endothelial tubule network assay, anti-angiogenic activity, read-out: IC50 value): 75 nM
- remarks (HUVECs; remark on IC50 versus sunitinib): comparable to sunitinib
- toxic effect on the cells (HUVECs; till 500 nM, 6 h): no toxic effect
- blood vessels formation through implanted Matrigel (Balb/c mice; 750 nM): significant reduction in blood vessels formation
- hemoglobin concentration (Balb/c mice; 750 nM in Matrigel): 10 to 15 µg/mL
- tumor growth ([1]; 25 mg/kg): regresses tumor growth similar to that of sunitinib
- tumor growth ([1]; 40 mg/kg): regresses tumor growth better than the standard compound sunitinib
